Measurements published in patent US10772893B2, “2-(morpholin-4-yl)-1,7-naphthyridines” (BAYER PHARMA AKTIENGESELLSCHAFT, priority 2014, dated 2020).
pIC50: −log10 of the molar value.

System: HeLa cells
Test: Proliferation assay, crystal violet staining
Settings: Homo sapiens, 96 h, read-out: Inhibition of HeLa cell proliferation, HeLa cells, 4 days incubation

SMILES | pIC50
O=S(=O)(c1ccccc1)c1cc(N2CCOCC2)nc2c(-c3ccn[nH]3)nccc12 [Example 198, 2-(morpholin-4-yl)-4-(phenylsulfonyl)-8-(1H-pyrazol-5-yl)-1,7-naphthyridine] | < 5.52
CCS(=O)(=O)c1cc(N2CCOCC2)nc2c(-c3ccn[nH]3)nccc12 [Example 200, 4-(ethylsulfonyl)-2-(morpholin-4-yl)-8-(1H-pyrazol-5-yl)-1,7-naphthyridine] | 5.71
[O-][S+](c1ccccc1)c1cc(N2CCOCC2)nc2c(-c3ccn[nH]3)nccc12 (stereo not drawn) [Example 201, 2-(morpholin-4-yl)-4-(phenylsulfinyl)-8-(1H-pyrazol-5-yl)-1,7-naphthyridine] | < 5.52
C[S+]([O-])c1cc(N2CCOCC2)nc2c(-c3ccn[nH]3)nccc12 (stereo not drawn) [Example 202, 4-(methylsulfinyl)-2-(morpholin-4-yl)-8-(1H-pyrazol-5-yl)-1,7-naphthyridine] | 5.82
C[C@@H]1COCCN1c1cc(C2CC[S+]([O-])CC2)c2ccnc(-c3ccn[nH]3)c2n1 (stereo partly drawn) [Example 203, 2-[(3R)-3-methylmorpholin-4-yl]-4-[1-oxidotetrahydro-2H-thiopyran-4-yl]-8-(1H-pyrazol-5-yl)-1,7-naphthyridine] | 6.00
C[C@@H]1COCCN1c1cc(C2CCS(=O)(=O)CC2)c2ccnc(-c3ccn[nH]3)c2n1 [Example 204, 4-(1,1-dioxidotetrahydro-2H-thiopyran-4-yl)-2-[(3R)-3-methylmorpholin-4-yl]-8-(1H-pyrazol-5-yl)-1,7-naphthyridine] | 6.25
COc1ccc(Sc2cc(N3CCOCC3)nc3c(-c4ccn[nH]4)nccc23)cc1 [Example 213, 4-[(4-methoxyphenyl)sulfanyl]-2-(morpholin-4-yl)-8-(1H-pyrazol-5-yl)-1,7-naphthyridine] | < 5.52
Cc1cc(-c2cc(N3CCOCC3)nc3c(-c4ccn[nH]4)nccc23)n[nH]1 [Example 214, 4-(5-methyl-1H-pyrazol-3-yl)-2-(morpholin-4-yl)-8-(1H-pyrazol-5-yl)-1,7-naphthyridine] | < 5.52
O=C1CCCN1c1cc(N2CCOCC2)nc2c(-c3ccn[nH]3)nccc12 [Example 215, 1-[2-(morpholin-4-yl)-8-(1H-pyrazol-5-yl)-1,7-naphthyridin-4-yl]pyrrolidin-2-one] | < 5.52
Cc1ncccc1-c1cc(N2CCOC[C@H]2C)nc2c(-c3ccn[nH]3)nccc12 [Example 218, 2-[(3R)-3-methylmorpholin-4-yl]-4-(2-methylpyridin-3-yl)-8-(1H-pyrazol-5-yl)-1,7-naphthyridine] | 6.52
CC(C)Oc1ncccc1-c1cc(N2CCOC[C@H]2C)nc2c(-c3ccn[nH]3)nccc12 [Example 219, 2-[(3R)-3-methylmorpholin-4-yl]-4-[2-(propan-2-yloxy)pyridin-3-yl]-8-(1H-pyrazol-5-yl)-1,7-naphthyridine] | 5.53
c1cc(-c2cc(N3CCOCC3)nc3c(-c4ccn[nH]4)nccc23)ccn1 [Example 221, 2-(morpholin-4-yl)-8-(1H-pyrazol-5-yl)-4-(pyridin-4-yl)-1,7-naphthyridine] | < 5.52
COc1ccc(Sc2cc(N3CCOC[C@H]3C)nc3c(-c4ccn[nH]4)nccc23)cc1 [Example 222, 4-[(4-methoxyphenyl)sulfanyl]-2-[(3R)-3-methylmorpholin-4-yl]-8-(1H-pyrazol-5-yl)-1,7-naphthyridine] | 6.01
COc1cnccc1-c1cc(N2CCOC[C@H]2C)nc2c(-c3ccn[nH]3)nccc12 [Example 227, 4-(3-methoxypyridin-4-yl)-2-[(3R)-3-methylmorpholin-4-yl]-8-(1H-pyrazol-5-yl)-1,7-naphthyridine] | 5.71
C[C@@H]1COCCN1c1cc(-c2cc(Cl)cnc2F)c2ccnc(-c3ccn[nH]3)c2n1 [Example 229, 4-(5-chloro-2-fluoropyridin-3-yl)-2-[(3R)-3-methylmorpholin-4-yl]-8-(1H-pyrazol-5-yl)-1,7-naphthyridine] | 6.35
